Experimental data as given in the supplement of paper PMC10307832.

Legend:
Assay in all cases: relative viability (nuclei count vs DMSO), 5 days (fraction); higher = more cells survive
A-427 = test system: A-427
In short: (§1)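 Lung cancer cell lines, seeded in 1536-well plates, were treated the following day by pin tool with a single drug or with five library-drug doses (not always all listed) in √10 steps on top of a fixed anchor-drug dose. Cells were fixed and nuclei stained in one step after 5 days, and nuclei were counted. Relative viability is the nuclei count for treated wells divided by that for vehicle wells, reported as medians of duplicate plates.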

COR-L 105 = test system: COR-L 105
In short: as §1

ChaGo-K-1 = test system: ChaGo-K-1
In short: as §1

EKVX = test system: EKVX
In short: as §1

EMC-BAC-2 = test system: EMC-BAC-2
In short: as §1

H3255 = test system: H3255
In short: as §1

HCC-366 = test system: HCC-366
In short: as §1

LK-2 = test system: LK-2
In short: as §1

LOU-NH91 = test system: LOU-NH91
In short: as §1

NCI-H1666 = test system: NCI-H1666
In short: as §1

NCI-H1734 = test system: NCI-H1734
In short: as §1

NCI-H1755 = test system: NCI-H1755
In short: as §1

NCI-H1792 = test system: NCI-H1792
In short: as §1

NCI-H1975 = test system: NCI-H1975
In short: as §1

NCI-H2170 = test system: NCI-H2170
In short: as §1

NCI-H23 = test system: NCI-H23
In short: as §1

NCI-H441 = test system: NCI-H441
In short: as §1

NCI-H520 = test system: NCI-H520
In short: as §1

NCI-H596 = test system: NCI-H596
In short: as §1

PC-3 [JPC-3] = test system: PC-3 [JPC-3]
In short: as §1

SK-MES-1 = test system: SK-MES-1
In short: as §1

SW 900 = test system: SW 900
In short: as §1

NC(=O)Nc1cc(-c2cccc(F)c2)sc1C(=O)N[C@H]1CCCNC1 [AZD7762] + Nc1ncn([C@H]2C[C@H](O)[C@@H](CO)O2)c(=O)n1 [Decitabine] (partner 2 µM)
relative viability (A-427; first compound 0.01 µM): 0.582
relative viability (A-427; first compound 0.03162 µM): 0.648
relative viability (A-427; first compound 0.1 µM): 0.633
relative viability (A-427; first compound 0.3162 µM): 0.554
relative viability (A-427; first compound 1 µM): 0.314
relative viability (COR-L 105; first compound 0.01 µM): 0.711
relative viability (COR-L 105; first compound 0.03162 µM): 0.664
relative viability (COR-L 105; first compound 0.1 µM): 0.643
relative viability (COR-L 105; first compound 0.3162 µM): 0.55
relative viability (COR-L 105; first compound 1 µM): 0.508
relative viability (ChaGo-K-1; first compound 0.01 µM): 0.52
relative viability (ChaGo-K-1; first compound 0.03162 µM): 0.553
relative viability (ChaGo-K-1; first compound 0.1 µM): 0.565
relative viability (ChaGo-K-1; first compound 0.3162 µM): 0.555
relative viability (ChaGo-K-1; first compound 1 µM): 0.597
relative viability (EKVX; first compound 0.01 µM): 0.456
relative viability (EKVX; first compound 0.03162 µM): 0.388
relative viability (EKVX; first compound 0.1 µM): 0.326
relative viability (EKVX; first compound 0.3162 µM): 0.395
relative viability (EKVX; first compound 1 µM): 0.37
relative viability (EMC-BAC-2; first compound 0.01 µM): 1.03
relative viability (EMC-BAC-2; first compound 0.03162 µM): 1.01
relative viability (EMC-BAC-2; first compound 0.1 µM): 1.09
relative viability (EMC-BAC-2; first compound 0.3162 µM): 1.13
relative viability (EMC-BAC-2; first compound 1 µM): 0.933
relative viability (H3255; first compound 0.01 µM): 0.528
relative viability (H3255; first compound 0.03162 µM): 0.708
relative viability (H3255; first compound 0.1 µM): 0.683
relative viability (H3255; first compound 0.3162 µM): 0.599
relative viability (H3255; first compound 1 µM): 0.625
relative viability (HCC-366; first compound 0.01 µM): 0.332
relative viability (HCC-366; first compound 0.03162 µM): 0.407
relative viability (HCC-366; first compound 0.1 µM): 0.337
relative viability (HCC-366; first compound 0.3162 µM): 0.309
relative viability (HCC-366; first compound 1 µM): 0.154
relative viability (LK-2; first compound 0.01 µM): 0.476
relative viability (LK-2; first compound 0.03162 µM): 0.479
relative viability (LK-2; first compound 0.1 µM): 0.346
relative viability (LK-2; first compound 0.3162 µM): 0.346
relative viability (LK-2; first compound 1 µM): 0.25
relative viability (LOU-NH91; first compound 0.01 µM): 0.823
relative viability (LOU-NH91; first compound 0.03162 µM): 0.796
relative viability (LOU-NH91; first compound 0.1 µM): 0.816
relative viability (LOU-NH91; first compound 0.3162 µM): 0.761
relative viability (LOU-NH91; first compound 1 µM): 0.673
relative viability (NCI-H1666; first compound 0.01 µM): 0.731
relative viability (NCI-H1666; first compound 0.03162 µM): 0.907
relative viability (NCI-H1666; first compound 0.1 µM): 0.924
relative viability (NCI-H1666; first compound 0.3162 µM): 0.824
relative viability (NCI-H1666; first compound 1 µM): 0.71
relative viability (NCI-H1734; first compound 0.01 µM): 0.567
relative viability (NCI-H1734; first compound 0.03162 µM): 0.581
relative viability (NCI-H1734; first compound 0.1 µM): 0.51
relative viability (NCI-H1734; first compound 0.3162 µM): 0.517
relative viability (NCI-H1734; first compound 1 µM): 0.39
relative viability (NCI-H1755; first compound 0.01 µM): 0.76
relative viability (NCI-H1755; first compound 0.03162 µM): 0.839
relative viability (NCI-H1755; first compound 0.1 µM): 0.847
relative viability (NCI-H1755; first compound 0.3162 µM): 0.922
relative viability (NCI-H1755; first compound 1 µM): 0.703
relative viability (NCI-H1792; first compound 0.01 µM): 0.507
relative viability (NCI-H1792; first compound 0.03162 µM): 0.579
relative viability (NCI-H1792; first compound 0.1 µM): 0.662
relative viability (NCI-H1792; first compound 0.3162 µM): 0.582
relative viability (NCI-H1792; first compound 1 µM): 0.68
relative viability (NCI-H1975; first compound 0.01 µM): 0.427
relative viability (NCI-H1975; first compound 0.03162 µM): 0.391
relative viability (NCI-H1975; first compound 0.1 µM): 0.439
relative viability (NCI-H1975; first compound 0.3162 µM): 0.396
relative viability (NCI-H1975; first compound 1 µM): 0.266
relative viability (NCI-H2170; first compound 0.01 µM): 0.465
relative viability (NCI-H2170; first compound 0.03162 µM): 0.544
relative viability (NCI-H2170; first compound 0.1 µM): 0.497
relative viability (NCI-H2170; first compound 0.3162 µM): 0.581
relative viability (NCI-H2170; first compound 1 µM): 0.436
relative viability (NCI-H23; first compound 0.01 µM): 0.329
relative viability (NCI-H23; first compound 0.03162 µM): 0.376
relative viability (NCI-H23; first compound 0.1 µM): 0.296
relative viability (NCI-H23; first compound 0.3162 µM): 0.331
relative viability (NCI-H23; first compound 1 µM): 0.284
relative viability (NCI-H441; first compound 0.01 µM): 0.274
relative viability (NCI-H441; first compound 0.03162 µM): 0.29
relative viability (NCI-H441; first compound 0.1 µM): 0.328
relative viability (NCI-H441; first compound 0.3162 µM): 0.344
relative viability (NCI-H441; first compound 1 µM): 0.27
relative viability (NCI-H520; first compound 0.01 µM): 0.521
relative viability (NCI-H520; first compound 0.03162 µM): 0.522
relative viability (NCI-H520; first compound 0.1 µM): 0.52
relative viability (NCI-H520; first compound 0.3162 µM): 0.475
relative viability (NCI-H520; first compound 1 µM): 0.246
relative viability (NCI-H596; first compound 0.01 µM): 0.978
relative viability (NCI-H596; first compound 0.03162 µM): 1.02
relative viability (NCI-H596; first compound 0.1 µM): 1.01
relative viability (NCI-H596; first compound 0.3162 µM): 1.1
relative viability (NCI-H596; first compound 1 µM): 1.03
relative viability (PC-3 [JPC-3]; first compound 0.01 µM): 0.892
relative viability (PC-3 [JPC-3]; first compound 0.03162 µM): 0.869
relative viability (PC-3 [JPC-3]; first compound 0.1 µM): 0.949
relative viability (PC-3 [JPC-3]; first compound 0.3162 µM): 0.848
relative viability (PC-3 [JPC-3]; first compound 1 µM): 0.592
relative viability (SK-MES-1; first compound 0.01 µM): 0.347
relative viability (SK-MES-1; first compound 0.03162 µM): 0.394
relative viability (SK-MES-1; first compound 0.1 µM): 0.342
relative viability (SK-MES-1; first compound 0.3162 µM): 0.289
relative viability (SK-MES-1; first compound 1 µM): 0.163
relative viability (SW 900; first compound 0.01 µM): 0.402
relative viability (SW 900; first compound 0.03162 µM): 0.477
relative viability (SW 900; first compound 0.1 µM): 0.551
relative viability (SW 900; first compound 0.3162 µM): 0.481
relative viability (SW 900; first compound 1 µM): 0.451
